The record followed here is ChEMBL document CHEMBL4680197, “Further exploration of DVD-445 as a lead thioredoxin reductase (TrxR) inhibitor for cancer therapy: Optimization of potency and evaluation of anticancer potential” (Eur J Med Chem, 2020).

The source made the active and inactive calls. The rule behind the calls is not given here.

Series [1] has as its system SH-SY5Y. Description: Inhibition of TrxR in human SH-SY5Y cell lysates at 5 uM using DTNB as substrate preincubated for 15 mins followed by substrate addition and measured for 20 mins by colorimetry relative to control. The format is subcellular. The note with it: time 35.0 min.
A short description of series [2]: Cytotoxicity against human U87-TxR cells assessed as reduction in cell viability incubated for 72 hrs by MTT assay. The class given is functional, cell-based. For orientation: Tetrazolium assays rely on reduction of a dye to a coloured formazan, in cell work by metabolically active cells.
Series [3] is described as follows: Selectivity index, ratio of IC50 for human MRC5 cells to IC50 for human U87 cells. The class given is toxicity. As to conditions: MRC5 cells versus U87 cells, read-out: Ratio IC50.
Series [4] has as its target T1, ATP-dependent translocase ABCB1 (Homo sapiens, UniProt P08183). In words: Inhibition of P-gp in human U87-TxR cells assessed as increase in Rho123 accumulation at 5 uM measured after 30 mins by flow cytometry. The format is cell-based. The note with it: 0.5 h.
For series [5], the target named is T2, Thioredoxin reductase 1, cytoplasmic (Rattus norvegicus, UniProt O89049).
T2 sequence (O89049 whole entry): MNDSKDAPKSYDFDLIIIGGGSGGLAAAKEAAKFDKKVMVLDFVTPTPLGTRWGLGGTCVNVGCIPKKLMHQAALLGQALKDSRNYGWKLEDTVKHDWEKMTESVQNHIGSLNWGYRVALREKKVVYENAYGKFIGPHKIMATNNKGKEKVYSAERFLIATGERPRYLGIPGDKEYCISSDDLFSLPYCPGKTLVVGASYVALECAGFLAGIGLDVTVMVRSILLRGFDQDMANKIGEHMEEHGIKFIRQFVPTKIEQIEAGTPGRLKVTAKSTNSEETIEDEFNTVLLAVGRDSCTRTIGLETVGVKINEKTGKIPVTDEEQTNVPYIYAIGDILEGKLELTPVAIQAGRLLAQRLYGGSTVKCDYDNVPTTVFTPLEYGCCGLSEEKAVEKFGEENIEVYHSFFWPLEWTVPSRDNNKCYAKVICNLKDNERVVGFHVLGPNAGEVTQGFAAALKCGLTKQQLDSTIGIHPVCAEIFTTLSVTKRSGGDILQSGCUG
Description: Inhibition of recombinant rat TrxR1 using DTNB as substrate preincubated for 15 mins followed by substrate addition and measured for 20 mins by colorimetry.

The target in series [6] is T3, Thioredoxin reductase 1, cytoplasmic (Homo sapiens) (UniProt Q16881).
T3 sequence (whole entry): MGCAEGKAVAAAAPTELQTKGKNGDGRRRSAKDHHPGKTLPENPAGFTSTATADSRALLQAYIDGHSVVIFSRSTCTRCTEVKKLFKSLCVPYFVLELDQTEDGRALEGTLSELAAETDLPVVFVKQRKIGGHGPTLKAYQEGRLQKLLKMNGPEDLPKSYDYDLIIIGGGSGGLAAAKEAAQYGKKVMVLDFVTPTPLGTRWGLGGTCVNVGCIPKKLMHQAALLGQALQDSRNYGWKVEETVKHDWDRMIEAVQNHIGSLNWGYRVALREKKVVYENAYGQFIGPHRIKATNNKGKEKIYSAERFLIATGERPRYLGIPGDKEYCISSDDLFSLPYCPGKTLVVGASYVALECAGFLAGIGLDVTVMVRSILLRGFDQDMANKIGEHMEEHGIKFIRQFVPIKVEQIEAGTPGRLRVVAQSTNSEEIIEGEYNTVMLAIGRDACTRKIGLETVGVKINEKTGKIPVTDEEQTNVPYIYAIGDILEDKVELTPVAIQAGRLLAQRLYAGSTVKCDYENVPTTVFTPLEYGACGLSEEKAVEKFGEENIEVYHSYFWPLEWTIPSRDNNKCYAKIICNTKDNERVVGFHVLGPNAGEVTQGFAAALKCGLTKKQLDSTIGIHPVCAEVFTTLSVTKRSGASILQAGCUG
Description: Inhibition of TrxR1 in human U87 cells assessed as increase in RONS level at 10 uM measured after 24 hrs by dihydrorhodamine 123 dye based flow cytometry. The class given is cell-based. In general terms: In flow cytometry, cells or beads pass a laser one at a time.

Series [7] addresses T1, ATP-dependent translocase ABCB1. In words: Inhibition of P-gp in human U87-TxR cells assessed as increase in Rho123 accumulation at 2.5 uM measured after 72 hrs by flow cytometry. The class given is cell-based.
Series [8] can be described thus: Selectivity index, ratio of IC50 for human MRC5 cells to IC50 for human U87-TxR cells. The class given is toxicity. The note with it: MRC5 cells versus U87-TxR cells, read-out: Ratio IC50.
In series [9] the test system is U-87 MG. In words: Cytotoxicity against human U87 cells assessed as reduction in cell viability incubated for 72 hrs by MTT assay. The class given is functional, cell-based, U-87MG ATCC.
Series [10] concerns MRC5. In words: Cytotoxicity against human MRC5 cells assessed as reduction in cell viability incubated for 72 hrs by MTT assay. The format is cell-based. The note with it: MRC5, 72 h.
For series [11], the target named is T3, Thioredoxin reductase 1, cytoplasmic (Homo sapiens). Description: Inhibition of TrxR1 in human U87-TxR cells assessed as increase in RONS level at 10 uM measured after 24 hrs by dihydrorhodamine 123 dye based flow cytometry. The class given is cell-based.
The target of series [12] is T1, ATP-dependent translocase ABCB1. In words: Inhibition of P-gp in human U87-TxR cells assessed as increase in Rho123 accumulation measured after 30 mins by flow cytometry. The format is cell-based. The note with it: 0.5 h.
For series [13] the target is unchanged. Description: Inhibition of P-gp in human U87-TxR cells assessed as increase in Rho123 accumulation at 50 nM measured after 30 mins by flow cytometry. The format is cell-based. The note with it: 0.5 h, 0.05 µM.

T1 sequence (P08183 whole entry): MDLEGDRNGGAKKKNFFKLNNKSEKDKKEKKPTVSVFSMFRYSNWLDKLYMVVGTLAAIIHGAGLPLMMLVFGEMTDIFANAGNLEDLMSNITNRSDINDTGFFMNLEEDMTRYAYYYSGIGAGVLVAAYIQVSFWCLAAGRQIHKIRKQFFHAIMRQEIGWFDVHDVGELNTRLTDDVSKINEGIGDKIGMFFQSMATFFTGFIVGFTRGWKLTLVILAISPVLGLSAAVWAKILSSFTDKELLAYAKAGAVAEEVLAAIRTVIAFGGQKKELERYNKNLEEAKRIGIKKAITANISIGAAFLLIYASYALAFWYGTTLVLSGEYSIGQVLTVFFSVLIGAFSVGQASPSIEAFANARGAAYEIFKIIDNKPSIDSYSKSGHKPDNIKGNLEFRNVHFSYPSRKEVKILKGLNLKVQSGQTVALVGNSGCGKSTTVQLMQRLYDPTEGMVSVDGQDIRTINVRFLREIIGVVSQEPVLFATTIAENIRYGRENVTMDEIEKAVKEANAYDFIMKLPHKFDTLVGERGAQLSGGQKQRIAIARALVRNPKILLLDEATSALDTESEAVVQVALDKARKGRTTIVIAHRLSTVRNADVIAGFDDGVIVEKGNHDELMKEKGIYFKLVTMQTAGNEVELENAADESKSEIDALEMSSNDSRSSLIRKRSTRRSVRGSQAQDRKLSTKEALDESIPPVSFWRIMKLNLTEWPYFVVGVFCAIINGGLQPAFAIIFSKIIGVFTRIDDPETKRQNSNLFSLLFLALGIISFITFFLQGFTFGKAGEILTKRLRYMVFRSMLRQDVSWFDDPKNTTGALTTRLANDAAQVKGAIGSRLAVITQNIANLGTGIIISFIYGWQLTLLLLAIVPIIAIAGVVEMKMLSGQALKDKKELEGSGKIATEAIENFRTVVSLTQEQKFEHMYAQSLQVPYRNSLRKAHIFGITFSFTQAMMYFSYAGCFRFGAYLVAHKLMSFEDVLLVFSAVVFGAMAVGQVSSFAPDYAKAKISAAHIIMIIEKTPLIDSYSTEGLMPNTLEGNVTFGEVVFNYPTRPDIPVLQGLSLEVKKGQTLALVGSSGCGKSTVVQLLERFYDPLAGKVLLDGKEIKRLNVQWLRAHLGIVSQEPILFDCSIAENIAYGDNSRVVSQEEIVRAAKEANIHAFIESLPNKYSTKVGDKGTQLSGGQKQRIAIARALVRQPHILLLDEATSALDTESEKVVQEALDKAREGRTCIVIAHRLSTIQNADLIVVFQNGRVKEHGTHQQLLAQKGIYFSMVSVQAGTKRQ

On to `CN(CCOC(=O)/C=C/C(=O)c1ccc(F)cc1)C(C(=O)NC(C)(C)C)c1ccc(F)c(F)c1` (configuration not stated), for which the inhibition (commonly how much of the control response was suppressed) in series [1] was found to be 84.6%. The half-inhibitory concentration (IC50) (as a rule, the midpoint of a concentration-inhibition curve) in series [2] was 7.74 µM; in [5] it was 0.19 µM; in series [9], 7.13 µM; in series [10], 17.8 µM. Also, the selectivity ratio in series [3] and in series [8] was 2.4 in each case. Besides, the results for the “inhibition (INH)” value in series [4] and in series [7] were “Active” and “Not Active”, respectively. In addition, the inhibition result in series [6] is “Active”.

As to `Cc1ccc(C(C(=O)NC(C)(C)C)N(C)CCOC(=O)/C=C/C(=O)c2ccc(F)cc2)cc1` (configuration not stated), the inhibition in [1] amounted to 82.7%. Also, the IC50 in series [2] is 6.14 µM; in [5], 0.59 µM; in series [9], 6.96 µM; in series [10] it was 14.2 µM. The selectivity ratio in series [3] and in series [8] was 2.2 each time. Further, the figures for the “inhibition (INH)” value in [4] and in series [7] were “Active” and “Not Active”, respectively. In addition, the inhibition result in [6] and in series [11] was “Active” each time.

Compound `CCN(CCOC(=O)/C=C/C(=O)c1ccc(F)cc1)C(C(=O)NC(C)(C)C)c1cccc(C)c1` (configuration not stated) displayed an inhibition in [1] of 50.2%. The half-inhibitory concentration (IC50) in series [2] came to 6.05 µM; in [5] it was 3.37 µM; in [9] it was 7.07 µM; in series [10] it was 13 µM. In addition, the selectivity ratio in series [3] and in [8] was 2 each time. Moreover, the “inhibition (INH)” value in [4] is listed as “Active”; in [7] it was “Not Active”. Besides, the inhibition result in [6] and in [11] was “Active” in each case.

`Cc1ccc(C(=O)/C=C/C(=O)OCCN(C)C(C(=O)NC2CCCCC2)c2ccc(F)cc2)cc1` (configuration not stated): the inhibition in series [1] was determined as 68.8%. Besides, the IC50 in series [2] turned out to be 11.7 µM; in [5], 37 µM; in series [9], 5.89 µM; in [10], 14.2 µM. Further, the selectivity ratio in series [3] and in [8] was 1.6 throughout. For the same compound, the “inhibition (INH)” value in series [4] is recorded as “Active”; in series [7], “Not Active”. For the same compound, the inhibition entry in series [6] and in series [11] was “Active” throughout.

For `CN(CCOC(=O)/C=C/C(=O)c1ccc(F)cc1)C(C(=O)NC(C)(C)C)c1ccccc1F` (configuration not stated), the inhibition in [1] was found to be 64%. In addition, the IC50 in [2] was determined as 6.14 µM; in series [5], 5 µM; in [9] it was 8.34 µM; in series [10], 14.8 µM. The selectivity ratio in series [3] and in [8] was 2 in each case. The “inhibition (INH)” value was “Active” in series [4] and “Not Active” in [7]. Further, in [11], the inhibition result is “Active”.

Compound `Cc1cccc(C(C(=O)NC2CCCCC2)N(C)CCOC(=O)/C=C/C(=O)c2ccc(F)cc2)c1` (configuration not stated) gave an inhibition in series [1] of 53%. Moreover, the IC50 in series [2] turned out to be 7.77 µM; in series [5], 3.2 µM; in [9], 7.02 µM; in series [10] it was 14.1 µM. The selectivity ratio in series [3] and in series [8] was 1.9 each time. Besides, the “inhibition (INH)” value in series [4] and in series [7] was “Active” throughout. Besides, the inhibition entry in series [11] is “Active”.

Regarding `CN(CCOC(=O)/C=C/C(=O)c1ccc(F)cc1)C(C(=O)NC(C)(C)C)c1ccc(F)cc1` (configuration not stated), the 50% inhibitory concentration (IC50) worked out at 8.54 µM in series [2], 8.9 µM in [9] and 11.8 µM in series [10]. The selectivity ratio in series [3] and in series [8] was 1.4 in each case. Besides, the “inhibition (INH)” value in series [12] is “Dose-dependent effect”. Also, in [11], the inhibition entry is “Active”.

Regarding `COc1cc2c(cc1OC)CN(CCc1ccc(NC(=O)c3cc(OC)c(OC)cc3NC(=O)c3cnc4ccccc4c3)cc1)CC2` [TARIQUIDAR], in series [13], the “inhibition (INH)” value is “Active”.

With `Cc1cccc(C(C(=O)NC(C)(C)C)N(C)CCOC(=O)/C=C/C(=O)c2ccc(F)cc2)c1` (configuration not stated), the inhibition in series [1] came to 33%. Moreover, the IC50 in series [2] stood at 8.41 µM; in [5], 1.5 µM; in series [9], 7.89 µM; in [10], 13.3 µM. The selectivity ratio in series [3] and in series [8] was 1.6 each time. Further, the “inhibition (INH)” value in series [4] is “Active”; in [7], “Not Active”. Further, the inhibition result in series [6] and in series [11] was “Active” each time.
